What was measured:
[1] = target: T1, EGFR mutant Del19 (E746-A750) (Homo sapiens, UniProt P00533, DEL746-750); assay: Kinase inhibition assay, EGFR del E746-A750; format: biochemical; conditions: read-out: EGFR mutants Del19 (E746-A750);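 further: truncated human EGFR mutant kinase, two-hour preincubation with compound, then one-hour reaction with ATP and ULight-PolyGT peptide, LANCE Europium-antibody phosphorylation readout, IC50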
T1 construct: truncated human JAK3, EGFR mutants such as del E746-A750; purchased Carna Biosciences

EGFR mutant L858R = target: T2, EGFR mutant L858R (Homo sapiens, UniProt P00533, L858R); assay: Kinase inhibition assay, EGFR L858R; format: biochemical; conditions: read-out: EGFR mutants L858R;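 further: truncated human EGFR L858R kinase with compound preincubation, ULight-PolyGT peptide phosphorylation read by Europium-antibody Lance detection, IC50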
T2 construct: truncated human JAK3, EGFR mutants such as del E746-A750; purchased Carna Biosciences

EGFR mutant L858R/T790M = target: T3, EGFR mutant L858R/T790M (Homo sapiens, UniProt P00533, L858R/T790M); assay: Kinase inhibition assay, EGFR L858R/T790M; format: biochemical; conditions: read-out: EGFR mutants L858R/T790M;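 further: truncated human enzyme preincubated two hours with compound, then one hour with one millimolar ATP and ULight-PolyGT peptide, Europium-labeled antibody detection, IC50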
T3 construct: truncated human JAK3, EGFR mutants such as del E746-A750; purchased Carna Biosciences

EGFR mutant Del19/T790M = target: T4, EGFR mutant Del19/T790M (Homo sapiens, UniProt P00533, DEL746-750/T790M); assay: Kinase inhibition assay, EGFR del E746-A750/T790M; format: biochemical; conditions: read-out: EGFR mutants Del19/T790M
T4 construct: truncated human JAK3, EGFR mutants such as del E746-A750; purchased Carna Biosciences

SYK = target: T5, SYK (Homo sapiens, UniProt P43405); assay: Kinase inhibition assay, SYK; format: biochemical; conditions: biochemical potency;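 further: purified full-length human SYK pre-incubated 30 min with compound, then ULight-TK peptide phosphorylation for 1 h, detected with Europium-labeled antibody in Lance buffer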
T5 construct: Purified human, full-length SYK, KDR; purchased Carna Biosciences

EGFR mutant T790M = target: T6, EGFR mutant T790M (Homo sapiens, UniProt P00533, T790M); assay: Kinase inhibition assay, EGFR mutant T790M; conditions: biochemical potency;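 further: truncated human EGFR mutant enzyme preincubated two hours with compound, then ATP plus ULight-PolyGT peptide for one hour, Europium-labeled antibody LANCE detection, IC50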
T6 construct: truncated human JAK3, EGFR mutants such as del E746-A750; purchased Carna Biosciences
T6 sequence (P00533 669-1210 T790M limits assumed): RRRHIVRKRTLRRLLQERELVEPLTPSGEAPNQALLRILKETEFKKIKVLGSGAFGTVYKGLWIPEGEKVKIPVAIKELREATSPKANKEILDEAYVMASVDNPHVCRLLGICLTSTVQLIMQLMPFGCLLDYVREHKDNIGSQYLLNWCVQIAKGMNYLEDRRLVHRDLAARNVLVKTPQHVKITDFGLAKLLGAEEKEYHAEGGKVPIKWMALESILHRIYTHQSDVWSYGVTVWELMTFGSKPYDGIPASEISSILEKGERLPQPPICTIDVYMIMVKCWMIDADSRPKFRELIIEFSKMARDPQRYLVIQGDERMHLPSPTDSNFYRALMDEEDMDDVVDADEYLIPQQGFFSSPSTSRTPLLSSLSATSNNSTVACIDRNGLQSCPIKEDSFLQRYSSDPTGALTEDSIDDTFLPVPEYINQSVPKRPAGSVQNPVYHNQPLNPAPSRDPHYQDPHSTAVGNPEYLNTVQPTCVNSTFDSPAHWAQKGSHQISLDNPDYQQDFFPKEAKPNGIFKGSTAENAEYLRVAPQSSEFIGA

T1 sequence (P00533 with tags, fused parts or gaps DEL746-750 limits assumed): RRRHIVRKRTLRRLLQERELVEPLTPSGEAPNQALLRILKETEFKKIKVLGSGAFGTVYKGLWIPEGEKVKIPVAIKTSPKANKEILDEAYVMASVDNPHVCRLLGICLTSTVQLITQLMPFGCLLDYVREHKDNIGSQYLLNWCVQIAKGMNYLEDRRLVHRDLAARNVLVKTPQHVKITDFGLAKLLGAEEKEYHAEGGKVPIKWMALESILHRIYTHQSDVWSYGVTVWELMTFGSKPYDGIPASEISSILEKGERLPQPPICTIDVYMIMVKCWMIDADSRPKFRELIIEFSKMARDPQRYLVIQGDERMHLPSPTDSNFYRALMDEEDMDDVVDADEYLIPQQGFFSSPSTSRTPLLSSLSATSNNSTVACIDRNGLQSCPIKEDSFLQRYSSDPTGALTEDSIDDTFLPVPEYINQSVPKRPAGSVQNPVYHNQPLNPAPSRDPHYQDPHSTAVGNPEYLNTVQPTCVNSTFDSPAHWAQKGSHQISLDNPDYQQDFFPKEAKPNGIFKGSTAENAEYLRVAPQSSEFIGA
T3 sequence (P00533 669-1210 T790M/L858R limits assumed): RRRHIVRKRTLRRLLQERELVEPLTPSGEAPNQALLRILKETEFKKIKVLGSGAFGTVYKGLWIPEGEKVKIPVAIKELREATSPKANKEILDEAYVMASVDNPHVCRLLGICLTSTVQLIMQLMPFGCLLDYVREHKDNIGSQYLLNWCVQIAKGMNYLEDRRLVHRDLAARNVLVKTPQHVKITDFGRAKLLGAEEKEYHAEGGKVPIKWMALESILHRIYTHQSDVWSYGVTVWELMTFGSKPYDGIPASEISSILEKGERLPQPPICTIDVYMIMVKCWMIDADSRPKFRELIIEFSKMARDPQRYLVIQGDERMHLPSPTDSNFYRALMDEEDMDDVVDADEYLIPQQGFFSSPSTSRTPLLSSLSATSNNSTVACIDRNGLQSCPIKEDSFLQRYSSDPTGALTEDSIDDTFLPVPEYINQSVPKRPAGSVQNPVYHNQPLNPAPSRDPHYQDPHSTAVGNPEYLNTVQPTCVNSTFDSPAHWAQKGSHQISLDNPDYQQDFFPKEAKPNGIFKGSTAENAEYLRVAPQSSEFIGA
T4 sequence (P00533 with tags, fused parts or gaps DEL746-750/T790M limits assumed): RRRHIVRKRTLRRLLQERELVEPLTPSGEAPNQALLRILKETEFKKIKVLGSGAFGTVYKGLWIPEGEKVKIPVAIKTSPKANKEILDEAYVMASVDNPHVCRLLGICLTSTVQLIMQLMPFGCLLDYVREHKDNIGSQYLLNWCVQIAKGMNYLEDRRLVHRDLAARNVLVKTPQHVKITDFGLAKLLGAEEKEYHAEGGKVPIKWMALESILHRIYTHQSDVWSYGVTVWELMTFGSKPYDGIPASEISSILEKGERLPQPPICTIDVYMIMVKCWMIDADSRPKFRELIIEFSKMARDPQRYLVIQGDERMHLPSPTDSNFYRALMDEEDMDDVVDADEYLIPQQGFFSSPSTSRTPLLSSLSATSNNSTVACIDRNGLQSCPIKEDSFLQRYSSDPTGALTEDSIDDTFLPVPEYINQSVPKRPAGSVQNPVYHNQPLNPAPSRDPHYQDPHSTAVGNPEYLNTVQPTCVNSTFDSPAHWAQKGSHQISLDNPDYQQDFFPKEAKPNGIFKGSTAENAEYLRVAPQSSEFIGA
T2 sequence (P00533 669-1210 L858R limits assumed): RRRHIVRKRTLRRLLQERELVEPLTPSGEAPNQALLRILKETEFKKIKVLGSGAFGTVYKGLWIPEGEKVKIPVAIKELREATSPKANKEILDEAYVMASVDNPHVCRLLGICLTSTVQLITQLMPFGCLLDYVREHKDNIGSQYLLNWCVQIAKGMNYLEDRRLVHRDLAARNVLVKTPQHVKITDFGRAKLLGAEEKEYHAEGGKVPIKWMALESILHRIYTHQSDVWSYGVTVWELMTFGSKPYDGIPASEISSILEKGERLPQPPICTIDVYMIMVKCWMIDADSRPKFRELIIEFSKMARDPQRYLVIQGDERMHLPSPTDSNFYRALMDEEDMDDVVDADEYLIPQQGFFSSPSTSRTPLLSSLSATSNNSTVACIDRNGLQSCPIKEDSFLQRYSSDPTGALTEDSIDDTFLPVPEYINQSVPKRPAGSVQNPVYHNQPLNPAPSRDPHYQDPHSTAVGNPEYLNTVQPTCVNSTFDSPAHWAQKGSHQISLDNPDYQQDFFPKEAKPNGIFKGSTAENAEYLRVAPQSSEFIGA

| Compound | IC50 [1] [nM] | IC50 (EGFR mutant L858R) [nM] | IC50 (EGFR mutant L858R/T790M) [nM] | IC50 (EGFR mutant Del19/T790M) [nM] | IC50 (SYK) [nM] | IC50 (EGFR mutant T790M) [nM] |
| --- | --- | --- | --- | --- | --- | --- |
| C=CC(=O)Nc1cc(Nc2nccc(-n3cc(CN4CC[C@H](N(C)C)C4)cn3)n2)c(OC)cc1N1CCOCC1 [Compound 35, (S)—N-(5-(4-(4-((3-(dimethylamino)pyrrolidin-1-yl)methyl)-1H-pyrazol-1-yl)pyrimidin-2-ylamino)-4-methoxy-2-morpholinophenyl)acrylamide] | 201 to 1000 | 201 to 1000 | 201 to 1000 | 20 to 200 | > 1000 | – |
| C=CC(=O)Nc1cc(Nc2nccc(-n3cc(CN(C)C)c(-c4ccncc4)n3)n2)c(OC)cc1N1CCOCC1 [Compound 136, N-(5-(4-(4-((dimethylamino)methyl)-3-(pyridin-4-yl)-1H-pyrazol-1-yl)pyrimidin-2-ylamino)-4-methoxy-2-morpholinophenyl)acrylamide] | < 20 | < 20 | < 20 | < 20 | – | < 20 |
| C=CC(=O)Nc1cc(Nc2nccc(-n3cc(CN4CCC4)c(C)n3)n2)c(OC)cc1-c1ccccc1OC [Compound 68, N-(4-(4-(4-(azetidin-1-ylmethyl)-3-methyl-1H-pyrazol-1-yl)pyrimidin-2-ylamino)-2′,5-dimethoxybiphenyl-2-yl)acrylamide] | 20 to 200 | 201 to 1000 | 20 to 200 | 20 to 200 | > 1000 | – |
| C=CC(=O)Nc1cc(Nc2nccc(-n3cc(CN(C)C)c(-c4cccnc4)n3)n2)c(OC)cc1N1CCOCC1 [Compound 128, N-(5-(4-(4-((dimethylamino)methyl)-3-(pyridin-3-yl)-1H-pyrazol-1-yl)pyrimidin-2-ylamino)-4-methoxy-2-morpholinophenyl)acrylamide] | < 20 | < 20 | < 20 | < 20 | – | < 20 |
| C=CC(=O)Nc1cc(Nc2nccc(-n3cc(CN4CCC4)c(C)n3)n2)c(OC)cc1N1CCC(F)(F)CC1 [Compound 69, N-(5-(4-(4-(azetidin-1-ylmethyl)-3-methyl-1H-pyrazol-1-yl)pyrimidin-2-ylamino)-2-(4,4-difluoropiperidin-1-yl)-4-methoxyphenyl)acrylamide] | < 20 | 20 to 200 | 20 to 200 | < 20 | > 1000 | – |
| C=CC(=O)Nc1cc(Nc2ncc(C)c(-n3cc(CN(C)C4CN(C)C4)cn3)n2)c(OC)cc1N1CCOCC1 [Compound 23, N-(4-methoxy-5-(5-methyl-4-(4-((methyl(1-methylazetidin-3-yl)amino)methyl)-1H-pyrazol-1-yl)pyrimidin-2-ylamino)-2-morpholinophenyl)acrylamide] | 201 to 1000 | – | 201 to 1000 | 201 to 1000 | > 1000 | 201 to 1000 |
| C=CC(=O)Nc1cc(Nc2ncc(C)c(-n3cc(CN4CCC4)c(-c4ccccc4)n3)n2)c(OC)cc1N1CCOCC1 [Compound 121, N-(5-(4-(4-(azetidin-1-ylmethyl)-3-phenyl-1H-pyrazol-1-yl)-5-methylpyrimidin-2-ylamino)-4-methoxy-2-morpholinophenyl)acrylamide] | < 20 | < 20 | < 20 | < 20 | – | < 20 |
| C=CC(=O)Nc1cc(Nc2nccc(-n3cc(CN(C)C)c(C(C)C)n3)n2)c(OC)cc1N(C)CCOC [Compound 112, N-(5-(4-(4-((dimethylamino)methyl)-3-isopropyl-1H-pyrazol-1-yl)pyrimidin-2-ylamino)-4-methoxy-2-((2-methoxyethyl)(methyl)amino)phenyl)acrylamide] | < 20 | < 20 | < 20 | < 20 | – | < 20 |
| C=CC(=O)Nc1cc(Nc2nccc(-n3cc(CN4CCC4)c(C(C)C)n3)n2)c(OC)cc1N(C)CCOC [Compound 113, N-(5-(4-(4-(azetidin-1-ylmethyl)-3-isopropyl-1H-pyrazol-1-yl)pyrimidin-2-ylamino)-4-methoxy-2-((2-methoxyethyl)(methyl)amino)phenyl)acrylamide] | < 20 | < 20 | < 20 | < 20 | – | < 20 |
| C=CC(=O)Nc1cc(Nc2nccc(-n3cc(CN(C)C)c(-c4cc(C)ccc4C)n3)n2)c(OC)cc1N1CCOCC1 [Compound 89, N-(5-(4-(4-((dimethylamino)methyl)-3-(2,5-dimethylphenyl)-1H-pyrazol-1-yl)pyrimidin-2-ylamino)-4-methoxy-2-morpholinophenyl)acrylamide] | 20 to 200 | 20 to 200 | < 20 | < 20 | – | 20 to 200 |
| C=CC(=O)Nc1cc(Nc2nccc(-n3cc(CN(C)C)c(C(C)(C)C)n3)n2)c(OC)cc1N(CC)CCOC [Compound 126, N-(5-(4-(3-tert-butyl-4-((dimethylamino)methyl)-1H-pyrazol-1-yl)pyrimidin-2-ylamino)-2-(ethyl(2-methoxyethyl)amino)-4-methoxyphenyl)acrylamide] | < 20 | < 20 | < 20 | < 20 | – | 20 to 200 |
| C=CC(=O)Nc1cc(Nc2nccc(-n3cc(CO)c(C)n3)n2)c(OC)cc1N1CCOCC1 [Compound 66, N-(5-(4-(4-(hydroxymethyl)-3-methyl-1H-pyrazol-1-yl)pyrimidin-2-ylamino)-4-methoxy-2-morpholinophenyl)acrylamide] | < 20 | 20 to 200 | < 20 | – | > 1000 | 20 to 200 |
| C=CC(=O)Nc1cc(Nc2ncc(C)c(-n3cc(CN4CCC4)c(C(C)C)n3)n2)c(OC)cc1N1CCOCC1 [Compound 125, N-(5-(4-(4-(azetidin-1-ylmethyl)-3-isopropyl-1H-pyrazol-1-yl)-5-methylpyrimidin-2-ylamino)-4-methoxy-2-morpholinophenyl)acrylamide] | < 20 | < 20 | < 20 | < 20 | – | < 20 |
| C=CC(=O)Nc1cc(Nc2nccc(-n3cc(CN4CCCC4)c(-c4ccccc4)n3)n2)c(OC)cc1N1CCOCC1 [Compound 90, N-(4-methoxy-2-morpholino-5-(4-(3-phenyl-4-(pyrrolidin-1-ylmethyl)-1H-pyrazol-1-yl)pyrimidin-2-ylamino)phenyl)acrylamide] | < 20 | 20 to 200 | < 20 | < 20 | > 1000 | – |
| C=CC(=O)Nc1cc(Nc2nccc(-n3cc(CO)c(-c4ccccc4)n3)n2)c(OC)cc1N1CCOCC1 [Compound 91, N-(5-(4-(4-(hydroxymethyl)-3-phenyl-1H-pyrazol-1-yl)pyrimidin-2-ylamino)-4-methoxy-2-morpholinophenyl)acrylamide] | < 20 | 20 to 200 | 20 to 200 | < 20 | – | 201 to 1000 |
| C=CC(=O)Nc1cc(Nc2nccc(-n3ccc(-c4ccccc4)n3)n2)c(OC)cc1N1CCN(C)CC1 [Compound 85, N-(4-methoxy-2-(4-methylpiperazin-1-yl)-5-(4-(3-phenyl-1H-pyrazol-1-yl)pyrimidin-2-ylamino)phenyl)acrylamide] | < 20 | 20 to 200 | 20 to 200 | < 20 | – | < 20 |
| C=CC(=O)Nc1cc(Nc2ncc(F)c(-n3cc(C)c(CN4CCC4)c3)n2)c(OC)cc1N(C)C [Compound 142, N-(5-(4-(3-(azetidin-1-ylmethyl)-4-methyl-1H-pyrrol-1-yl)-5-fluoropyrimidin-2-ylamino)-2-(dimethylamino)-4-methoxyphenyl)acrylamide] | < 20 | < 20 | < 20 | < 20 | 201 to 1000 | – |
| C=CC(=O)Nc1cc(Nc2nccc(-n3nc(C)c(CN4CCC4)c3C)n2)c(OC)cc1N1CCOCC1 [Compound 70, N-(5-(4-(4-(azetidin-1-ylmethyl)-3,5-dimethyl-1H-pyrazol-1-yl)pyrimidin-2-ylamino)-4-methoxy-2-morpholinophenyl)acrylamide] | 20 to 200 | 20 to 200 | 20 to 200 | 20 to 200 | – | – |
| C=CC(=O)Nc1cc(Nc2nccc(-n3cc(CN(C)CC)c(C4CC4)n3)n2)c(OC)cc1N1CCN(C(C)=O)CC1 [Compound 137, N-(2-(4-acetylpiperazin-1-yl)-5-(4-(3-cyclopropyl-4-((ethyl(methyl)amino)methyl)-1H-pyrazol-1-yl)pyrimidin-2-ylamino)-4-methoxyphenyl)acrylamide] | < 20 | < 20 | < 20 | < 20 | – | < 20 |
| C=CC(=O)Nc1cc(Nc2ncc(C)c(-n3cc(CN(C)C)c(C4CC4)n3)n2)c(OC)cc1N(C)C1COC1 [Compound 132, N-(5-(4-(3-cyclopropyl-4-((dimethylamino)methyl)-1H-pyrazol-1-yl)-5-methylpyrimidin-2-ylamino)-4-methoxy-2-(methyl(oxetan-3-yl)amino)phenyl)acrylamide] | < 20 | < 20 | < 20 | < 20 | – | < 20 |
| C=CC(=O)Nc1cc(Nc2nccc(-n3cc(CN(C)CC)c(C)n3)n2)c(OC)cc1N1CCOCC1 [Compound 145, N-(5-(4-(4-((ethyl(methyl)amino)methyl)-3-methyl-1H-pyrazol-1-yl)pyrimidin-2-ylamino)-4-methoxy-2-morpholinophenyl)acrylamide] | < 20 | < 20 | < 20 | < 20 | – | 20 to 200 |
